Columns and labels:
[1] = target: T1, GALA (β-galactosidase from Bacillus circulans) (Niallia circulans, UniProt E5RWQ2); assay: HPLC and TLC of hydrolysis and transgalactosylation products; format: biochemical; conditions: 200-500 g/L lactose, 0.1 M phosphate-citrate pH 5-7, 30-50 °C; also galactosyl acceptor
T1 construct: gene bga; codon-optimised synthetic gene (galAm) with His-tag, secreted from Pichia pastoris GS115 (pPICZαA); HisTrap and gel filtration; predicted 1703 residues, 190 kDa; glycosylated
T1 sequence (E5RWQ2 24-1737): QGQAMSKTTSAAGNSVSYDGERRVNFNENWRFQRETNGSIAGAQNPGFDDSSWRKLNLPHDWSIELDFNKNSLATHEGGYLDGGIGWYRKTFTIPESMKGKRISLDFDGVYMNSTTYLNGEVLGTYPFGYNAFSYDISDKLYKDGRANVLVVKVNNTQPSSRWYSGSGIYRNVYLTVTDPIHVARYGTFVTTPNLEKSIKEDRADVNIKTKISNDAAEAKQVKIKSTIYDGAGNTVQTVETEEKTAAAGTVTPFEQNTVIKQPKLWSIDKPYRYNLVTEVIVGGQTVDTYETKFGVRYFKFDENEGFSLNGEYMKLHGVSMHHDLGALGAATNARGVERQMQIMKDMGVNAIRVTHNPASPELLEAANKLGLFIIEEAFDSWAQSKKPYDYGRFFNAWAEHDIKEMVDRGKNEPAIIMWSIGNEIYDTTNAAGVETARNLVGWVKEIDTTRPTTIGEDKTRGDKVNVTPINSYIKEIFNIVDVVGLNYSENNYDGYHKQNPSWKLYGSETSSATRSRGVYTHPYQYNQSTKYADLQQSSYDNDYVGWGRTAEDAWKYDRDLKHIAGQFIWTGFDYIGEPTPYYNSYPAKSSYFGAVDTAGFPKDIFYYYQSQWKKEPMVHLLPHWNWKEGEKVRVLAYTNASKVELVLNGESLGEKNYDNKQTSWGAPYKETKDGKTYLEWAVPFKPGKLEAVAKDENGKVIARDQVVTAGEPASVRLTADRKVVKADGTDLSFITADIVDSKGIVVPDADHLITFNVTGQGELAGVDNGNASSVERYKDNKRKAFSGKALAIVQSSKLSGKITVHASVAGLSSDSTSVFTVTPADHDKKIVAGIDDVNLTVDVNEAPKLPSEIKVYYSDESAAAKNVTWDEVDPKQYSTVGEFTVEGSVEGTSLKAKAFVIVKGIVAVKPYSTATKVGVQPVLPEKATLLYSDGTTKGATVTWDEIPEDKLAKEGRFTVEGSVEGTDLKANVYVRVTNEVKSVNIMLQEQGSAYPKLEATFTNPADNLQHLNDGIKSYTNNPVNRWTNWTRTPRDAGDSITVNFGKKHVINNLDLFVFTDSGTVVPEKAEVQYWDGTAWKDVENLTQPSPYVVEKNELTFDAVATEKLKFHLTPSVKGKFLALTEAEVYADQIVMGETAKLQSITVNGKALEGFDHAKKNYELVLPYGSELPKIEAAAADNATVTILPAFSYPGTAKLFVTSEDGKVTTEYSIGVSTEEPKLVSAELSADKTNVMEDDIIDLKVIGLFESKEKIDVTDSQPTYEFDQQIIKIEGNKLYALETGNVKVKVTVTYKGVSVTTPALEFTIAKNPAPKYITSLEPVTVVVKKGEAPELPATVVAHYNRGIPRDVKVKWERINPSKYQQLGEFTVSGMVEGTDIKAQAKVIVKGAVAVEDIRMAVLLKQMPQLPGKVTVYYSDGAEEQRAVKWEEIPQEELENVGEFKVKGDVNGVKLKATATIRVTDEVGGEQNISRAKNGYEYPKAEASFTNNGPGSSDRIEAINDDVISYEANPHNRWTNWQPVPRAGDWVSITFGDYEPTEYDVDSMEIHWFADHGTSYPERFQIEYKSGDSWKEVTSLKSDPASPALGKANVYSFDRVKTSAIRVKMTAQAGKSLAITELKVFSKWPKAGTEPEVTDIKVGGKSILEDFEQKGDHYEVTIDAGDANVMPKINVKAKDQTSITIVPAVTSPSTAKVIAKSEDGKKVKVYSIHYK

[2] = target: T1, GALA (β-galactosidase from Bacillus circulans); assay: o-nitrophenol release, absorbance at […] nm; format: biochemical; conditions: 0.25% oNPG, 20 mM phosphate-citrate pH 6.0, 45 °C, 15 min

| SMILES | HPLC and TLC of hydrolysis and transgalactosylation products [1] | o-nitrophenol release, absorbance at 420 nm [2] |
| --- | --- | --- |
| OC[C@H]1O[C@@H](O[C@H]2[C@H](O)[C@@H](O)C(O)O[C@@H]2CO)[C@H](O)[C@@H](O)[C@H]1O (some centres unmarked) [lactose] | enzymatic transgalactosylation activity of the β-galactosidase, using lactose as the substrate | – |
| O=[N+]([O-])c1ccccc1O[C@@H]1O[C@H](CO)[C@H](O)[C@H](O)[C@H]1O [O-nitrophenyl-β-D-galactopyranoside] | – | The experiments were carried out three times using ONPG as the substrate |
